Where two headings read alike, the source gives them in different places.
Columns and labels:
[1] = system: THR (ANGPTL4, CPT1A, DIO1 RNA in Huh-7 cells); assay: Differential gene expression assay in Huh-7 cells; format: cell-based, human; settings: Homo sapiens
Description: Hepatoma-derived Huh-7 cells (JCRB Cell Bank, JCRB0403) were obtained directly from the repository, which performed cell line authentication via isozyme analysis and comprehensively tested for microbial contamination, viral contamination, and cross culture contamination. Cells were routinely cultured in DMEM (Corning, 10-013-CM) supplemented with 10% FBS and 1% P/S at 37°C and 5% CO2 until 80–90% confluency. Cells were then detached with 0.05% trypsin (Corning, 25-052-CV), resuspended in TH-free medium (DMEM supplemented with 10% TH-depleted FBS and 1% P/S), and seeded into collagen-coated, 96-well microplates (Corning, 354407) at 5.0 x 10^4 cells/well. After 24 hrs, the culture medium was replaced with treatment media. Cells were treated for 24 hrs. TH-depletion of the FBS via resin treatment was accomplished as previously described. All treatment media were made by mixing test compounds, serially diluted in DMSO, with TH-free medium (0.1% final DMSO concentration).
After 24 hrs in treatment media, both Huh-7 cells and PHH were processed with the TaqMan Fast Advanced Cells-to-Ct Kit (Invitrogen, A35378), according to the manufacturer’s protocol. Briefly, the treatment media was removed and the cells were washed with 50 μL cold 1X phosphate-buffered saline (Corning, 21-040-CM). Fifty μL lysis buffer containing DNase I was added to each well and the plate was incubated on a rotor at RT for 5 mins. Five μL stop solution was then added to each well and after another 2 mins incubation on a rotor at RT, the cell lysates were used for reverse transcription. The resulting cDNA was diluted 1:2 with nuclease-free, distilled water (Invitrogen, 10977015). Gene expression was measured using TaqMan Fast Advanced Master Mix (Applied Biosystems, 4444964) and the following TaqMan Gene Expression assays (Applied Biosystems, 4331182): 18S (Hs99999901_s1), ACTB (Hs01060665_g1), ANGPTL4 (Hs01101123_g1), CPT1A (Hs00912671_m1), DIO1 (Hs00174944_m1), TFG (Hs02832013_g1), THRA (Hs00268470_m1), and THRB (Hs00230861_m1). ACTB and TFG served as control housekeeping genes for Huh-7 assays and 18S and ACTB for PHH assays. Ten μL reactions were run on the qTOWER³ 84 (Analytik Jena). Relative quantification (RQ) of gene expression was calculated via the 2^−ΔΔCt method and dose-response curves were fitted by non-linear regression with variable slope. Statistical analysis was performed in GraphPad Prism 8.
We aimed to develop an in vitro, cell-based assay that is not only amenable to high throughput screening of compounds, but that can also more reliably recapitulate in vivo processes. Because activated THR may function as a transcription factor, we compared the action of THR agonists in a human hepatocyte-derived cell line and in primary human hepatocytes (PHH) by quantifying transcriptional changes resulting from compound treatment (Fig 2A). Cells were cultured in TH-depleted media for 24 hrs and then treated with compounds for 24 hrs. The RNA levels of THR target genes were then measured via RT-qPCR.

THR (THRSP RNA in PHH) = assay: Differential gene expression assay in primary human hepatocytes (PHH); format: cell-based; settings: Hepatocyte, RT-qPCR, 24 hrs treatment, read-out: PHH EC50 Mean ± SEM
HFD fed rats = assay: High-fat diet fed rat study: serum and hepatic lipid levels; format: in vivo; settings: 0.5 mg/kg I.P. single dose
Description: Animals were purchased from Vital River Laboratory Animal Technology Co. Ltd. and experiments were conducted at Covance Pharmaceutical R&D (Shanghai) Co., Ltd. (China). Animals were group-housed in polycarbonate cages with corncob bedding under controlled temperature (21–25°C), humidity (40–70%), and a 12-hr light/dark cycle. All procedures performed were in compliance with local animal welfare legislation, Covance global policies and procedures, and the Guide for the Care and Use of Laboratory Animals.
Eighty-four male Sprague Dawley rats, approximately 8 to 11 weeks of age, were fed with either a normal diet, ND (D12450K: 10 kcal% fat, no sucrose), or high-fat diet, HFD (D12109C: 40 kcal% fat, 1.25 gm% cholesterol, 0.5 gm% sodium cholate, 12.5 gm% sucrose). After 12 days of diet consumption, baseline serum total cholesterol and low-density lipoprotein cholesterol (LDL-C) levels were measured with the cobas 6000 c501 Chemistry Analyzer (Roche) to confirm hypercholesterolemia in the HFD fed rats. Animals were then randomized into treatment groups.
Twenty-four hrs after dosing, animals were euthanized by CO2 inhalation and serum and plasma were collected along with liver tissue. Serum total cholesterol and LDL-C levels were determined as described above. […] Caudate lobes of the liver were used for analysis of hepatic total cholesterol (Abcam, ab65390) and triglyceride levels (Abcam, ab65336) via enzyme-linked immunosorbent assay. Right lateral lobes were stored in RNAlater (Invitrogen, AM7020) at -70°C until homogenization with the Scientz-48 TissueLyser LT for downstream gene expression analysis. RNA extraction was performed at WuXi AppTec (Hong Kong) Limited (China) with the RNeasy Mini Kit (Qiagen, 74106) and RNA concentration and quality was determined using the Nanodrop 2000 (Thermo Scientific); additional quality control was assessed with agarose gel electrophoresis. One μg total RNA from each sample was then reverse-transcribed using the High Capacity cDNA Reverse Transcription kit (Applied Biosystems, 4368814) and the resulting cDNA was diluted 1:5 with nuclease-free, distilled water. Gene expression was measured using TaqMan Fast Advanced Master Mix and the following TaqMan Gene Expression assays: Actb (Rn00667869_m1), Cpt1a (Rn00580702_m1), Dio1 (Rn00572183_m1), Me1 (Rn00561502_m1), Rplp1 (Rn03467157_gH), and Thrsp (Rn01511034_m1). Actb and Rplp1 served as control housekeeping genes. Ten μL reactions were run on the qTOWER³ 84. Relative quantification (RQ) of gene expression was calculated via the 2^−ΔΔCt method and statistical analysis was performed in GraphPad Prism 8.0 and Microsoft Excel.

[2] = Huh-7, CPT1A RNA, RT-qPCR, 24 hrs treatment, read-out: Huh-7 EC50 Mean ± SEM
[3] = Huh-7, 24 hrs, n = 2 (Fig 2C), read-out: mean EC50, ANGPTL4
[4] = Huh-7, 24 hrs, n = 2 (Fig 2C), read-out: mean EC50, CPT1A
[5] = Huh-7, 24 hrs, n = 2 (Fig 2C), read-out: mean EC50, DIO1

SMILES | EC50 [1, 2] [nM] | EC50 [1, 3] [nM] | EC50 [1, 4] [nM] | EC50 [1, 5] [nM] | EC50 (THR (THRSP RNA in PHH)) [nM] | decrease in serum total cholesterol (pre-dose vs 24 hrs post-dose) (HFD fed rats) [%] | decrease in serum triglyceride levels (pre-dose vs 24 hrs post-dose) (HFD fed rats) [%]
N[C@@H](Cc1cc(I)c(Oc2ccc(O)c(I)c2)c(I)c1)C(=O)O [T3, triiodothyronine] | […] | […] | […] | […] | […] | 68.2 | 71.2

From article PMC7732128, “Regulation of gene transcription by thyroid hormone receptor β agonists in clinical development for the treatment of non-alcoholic steatohepatitis (NASH)” (PLoS ONE, 2020)
